For two molecules, Kp results are on record in patent US9546175B2, “Organic compounds” (Intra-Cellular Therapies, Inc., priority 2014, dated 2017).

The nature of this series: Pharmacokinetic analysis in mice, plasma and brain levels by LC-MS/MS. Format: in vivo. Conditions: mouse, male C57BL/6 mice, 10 mg/kg oral (PO), 0.25-2 h, read-out: B/P ratio (Brain AUC(0-2h)/Plasma AUC(0-2h)). The procedure: Animals: Male, C57BL/6 mice (Jackson Labs, 25-30 g in body weight) are provided by Jackson Laboratories. Up to five mice are housed per cage and are maintained under a 12 hour light/dark cycle with access to food and water ad libitum. All procedures for the handling and use of animals follow the guidelines of the Institutional Animal Care and Use Committee (IACUC) of Columbia University, in accordance with NIH guidelines. Eight week-old mice (N=3/dose level or treatment group) are used in the experiments.
Experimental Treatment: Compounds: Selected Compounds of the Invention are evaluated in the present study. […]
Compound Preparation: Powdered stocks of the test compound(s) are measured and dissolved in 3% 1N HCl, 5% Labrasol and 92% of 5% TPGS in 0.05M Citrate buffer (CB, pH 4.0). […]
Treatment of Animals: Mice (N=3 mice/dose/time point) receive a 10 mg/kg oral (PO) dose of the test compound(s) at time 0. […] Plasma and brain tissue samples are processed and analyzed by the analytical group using LC-MS/MS methods, as described below. […]
Each tube is vortexed, then centrifuged for 20 min at 15000 rpm using a Tomy benchtop centrifuge at 4° C., Standard is an internal standard used for LC-MS/MS quantitation. […]
Each compound is detected and quantified using Multiple Reaction Monitoring (MRM) of positive electrospray mode with a Waters QuattroMicro™ mass spectrometry system. […]

Consider `CC(C)Cn1c(=O)n(C)c(=O)c2c(Nc3ccccc3)n(Cc3ccc(S(N)(=O)=O)cc3)nc21` [Example 1, 4-((7-Isobutyl-5-methyl-4,6-dioxo-3-(phenylamino)-4,5,6,7-tetrahydropyrazolo[3,4-d]pyrimidin-2-yl)methyl)benzenesulfonamide], for which the Kp is not above 0.05.

Turning to `CC(C)Cn1c(=O)n(C)c(=O)c2c(Nc3ccccc3)n(Cc3ccc(C(=O)O)cc3)nc21` [Example 2, 4-((7-isobutyl-5-methyl-4,6-dioxo-3-(phenylamino)-4,5,6,7-tetrahydropyrazolo[3,4-d]pyrimidin-2-yl)methyl)benzoic acid], the Kp is not above 0.05.
